Measurements as given in PubChem BioAssay AID1645868 (Buhrlage Lab, Dana-Farber Cancer Institute and Novartis …, 2021).
Calls of active or inactive are those of the source.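 The calls were made as follows: active = maximal percent inhibition of the deubiquitinase OTUD3 of at least 30% across the tested doses; inactive = the rest.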

These compounds were tested against OTU domain-containing protein 3 (Homo sapiens) (UniProt Q5T2D3) (assay: Validation of screening hits, potency titration, in vitro enzymatic, OTU domain-containing protein 3 DUB inhibitors (AID 1645868)). Settings: purified OTUD3, ubiquitin-rhodamine cleavage fluorescence, 2 h.
Chain of OTU domain-containing protein 3 (Homo sapiens) (Q5T2D3 whole entry, looked up, the tested form may be a part): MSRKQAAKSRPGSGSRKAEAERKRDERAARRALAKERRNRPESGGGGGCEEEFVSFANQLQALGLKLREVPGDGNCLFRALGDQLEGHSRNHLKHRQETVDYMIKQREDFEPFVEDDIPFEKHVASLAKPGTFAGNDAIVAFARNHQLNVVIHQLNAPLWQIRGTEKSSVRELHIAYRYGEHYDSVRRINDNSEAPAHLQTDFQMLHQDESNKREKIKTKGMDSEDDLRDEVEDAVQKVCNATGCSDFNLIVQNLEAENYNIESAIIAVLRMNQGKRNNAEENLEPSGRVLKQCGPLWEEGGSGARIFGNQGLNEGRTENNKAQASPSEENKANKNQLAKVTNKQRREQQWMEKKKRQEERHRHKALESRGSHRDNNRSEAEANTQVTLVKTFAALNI

IC50	SMILES
31.8 µM	CCC(C)c1ccc(-c2csc(Cn3c(CN4CCN(C)CC4)nc4ccccc4c3=O)n2)cc1 (stereo unspecified)
35.3 µM	Cc1ccc(C(=O)NCC(=O)Nc2nc3ccccc3[nH]2)c(C)c1
37.7 µM	COc1ccc(CCNC(=O)CSc2cn(CCNC(=O)c3ccc(F)cc3)c3ccccc23)cc1OC
> 50 µM (inactive)	CC(C)(C)n1ncc2c(=O)n(Cc3cccc([N+](=O)[O-])c3)cnc21
> 50 µM (inactive)	Cc1sc(-c2cccnc2)nc1OC(=O)c1ccc(Cl)c(Cl)c1
> 50 µM (inactive)	O=C(Nc1nnc2n1CCCS2)c1cccc(Cl)c1
> 50 µM (inactive)	Oc1ccc(Br)cc1CNc1ccc(F)cc1
19.9 µM	Cc1nc2ccc(NC(=O)COc3ccccc3[N+](=O)[O-])cc2s1
> 50 µM (inactive)	Cc1cc(C(=O)CN2CCN(Cc3ccc4c(c3)OCO4)CC2)c(C)n1-c1ccc2c(c1)OCO2
2.99 µM	COc1cc(C(=O)NC(Cc2ccccc2)c2nc3ccccc3[nH]2)cc(OC)c1OC (stereo unspecified)
> 50 µM (inactive)	CCOc1ccc(NC(=O)c2nc3c(=O)[nH]c4cc(C)ccc4n3n2)cc1
> 50 µM (inactive)	Cc1ccc(C(=O)Nc2cc3c4c(c2)CC(=O)N4CCC3)cc1C
> 50 µM (inactive)	COC(=O)c1ccc(Cn2cnc3ccc(Br)cc3c2=O)o1
19 µM	CCC(=O)Nc1ccccc1-c1nc2ccccc2n(CC(=O)Nc2cc(OC)ccc2OC)c1=O
18.4 µM	COc1ccc(-c2cc(N3CCC(NC(=O)c4ccccc4)C3)n[nH]2)cc1 (stereo unspecified)
> 50 µM (inactive)	CO/C=C/C(=O)c1cc2cnc3c(=N)cc(NC(C)=O)c([nH]1)c23
> 50 µM (inactive)	Cc1ccc2nc(NC(=O)CSc3nnc(-c4ccncc4)n3C3CC3)sc2c1
> 50 µM (inactive)	Cc1nc(-c2ccccn2)sc1C(=O)Nc1ccc(C#N)cc1
> 50 µM (inactive)	N#Cc1ccc(NC(=O)Nc2cccn(Cc3ccccc3Br)c2=O)cc1

IC50	SMILES
> 50 µM (inactive)	COc1cc(NC(=O)c2cc(-c3ccncc3)n(-c3ccc(F)cc3)n2)cc(OC)c1
> 50 µM (inactive)	COc1ccc(-c2nc3n(n2)C(c2cccc(O)c2)C2=C(CCCC2=O)N3)cc1 (stereo unspecified)
> 50 µM (inactive)	FC(F)(F)c1cccc(Nc2nnc(-c3cccnc3)s2)c1
31.6 µM	Cc1cccc(NC(=O)CSc2nnc(-c3n[nH]c4c3CCC4)n2N)c1
46.3 µM	CSc1ccccc1C(=O)Nc1nc(-c2ccncc2)cs1
> 50 µM (inactive)	O=C(c1cc(Cl)ccc1Cl)N1CCN(c2ccc3nnc(-c4ccco4)n3n2)CC1
> 50 µM (inactive)	O=C(NC1CCN(Cc2ccccc2)CC1)c1[nH]nc2c1CCc1ccccc1-2
> 50 µM (inactive)	N#C/C(=C/c1sc(N2CCOCC2)nc1-c1ccccc1)c1ccccn1
> 50 µM (inactive)	O=C(Nc1ccc2c(c1)OCCO2)c1cc(CN2CCCC2)on1
44.9 µM	Cc1ccc2[nH]c3c(=O)n(CC4CCCO4)cnc3c2c1 (stereo unspecified)
4.24 µM	Cc1ccccc1NC(=O)Nc1ccccc1OCc1cc(=O)n2cccc(C)c2n1
> 50 µM (inactive)	C=Cc1ccc(Cn2cccc(S(=O)(=O)N3CCCC3)c2=O)cc1
> 50 µM (inactive)	COc1ccc(-c2[nH]c3ccccc3c2SCCNC(=O)c2ccc(S(=O)(=O)N3CCOCC3)cc2)cc1
> 50 µM (inactive)	COc1ccc(-c2cc(-c3ccc(O)cc3)nc(N)c2C#N)cc1OC
> 50 µM (inactive)	COc1ccc(OC)c(NC(=O)CSc2nc(C)nc3c2oc2ccccc23)c1
> 50 µM (inactive)	COc1ccccc1-c1nc2c3c(ncn2n1)Oc1c(c(C)nn1-c1ccccc1)C3c1cccnc1 (stereo unspecified)
> 50 µM (inactive)	CC(C)C1Cc2c(sc3nc(SCC(=O)Nc4cccc5ccccc45)nc(N)c23)CO1 (stereo unspecified)
> 50 µM (inactive)	COc1ccc(C2CC(c3ccccc3)N(C(=O)C3CC3)c3ncnn32)cc1 (stereo unspecified)
> 50 µM (inactive)	COc1ccc(/C=C/c2ccnc3nc(-n4cccc4)nn23)cc1

IC50	SMILES
> 50 µM (inactive)	COc1ccc(O)c(C(=O)OCc2cc(=O)oc3ccc4ccccc4c23)c1
10.4 µM	O=C(Nc1cccc(Br)c1)c1cc(-c2cccnc2)n[nH]1
> 50 µM (inactive)	COc1cccc2c1C(=O)c1ccc3c(c1C2=O)C(=O)CC(C)(O)C3 (stereo unspecified)
> 50 µM (inactive)	Cc1cc(C(=O)N2CCOCC2)c(C)n1-c1ccc(O)cc1
23.1 µM	c1ccc(-c2ccc(NCc3ccc4c(c3)OCO4)nn2)cc1
> 50 µM (inactive)	COc1ccc(-n2nnc3c(SCC(=O)Nc4cc(C)on4)ncnc32)cc1
> 50 µM (inactive)	COc1ccc(-c2nc(C)c(C(=O)NCc3ccc(S(N)(=O)=O)cc3)s2)cc1
> 50 µM (inactive)	O=[N+]([O-])c1cccc(CSc2nnc(/C=C/c3ccccc3)o2)c1
> 50 µM (inactive)	COc1ccc(OCC(=O)Nc2ccc(C)c(OCc3cc(=O)n4ccccc4n3)c2)cc1
41.3 µM	O=C1C[C@@H](O)[C@H](O)[C@@]23O[C@@]12C1(Oc2cccc4cccc(c24)O1)[C@@H]1O[C@@H]1[C@@H]3O
> 50 µM (inactive)	COc1cccc(NC(=O)CCc2c(C)nn(-c3cc(N4CCCCC4)ncn3)c2C)c1
17.3 µM	CCOC(=O)c1ccc(S(=O)(=O)N2CCC(C(=O)OC(C)C(=O)Nc3cccc([N+](=O)[O-])c3)CC2)cc1 (stereo unspecified)
> 50 µM (inactive)	COc1ccc(-c2cc(C(F)F)n3ncc(C(=O)Nc4ccc5c(c4)OCCO5)c3n2)cc1
17.9 µM	Cc1cccc(NC(=O)CSc2nnc(-c3n[nH]c4c3CCC4)n2N)c1C
22.7 µM	CCn1cc2c(n1)c(=O)n(Cc1ccc(C)cc1)c(=O)n2CC(=O)Nc1ccc(F)cc1
> 50 µM (inactive)	COc1ccc2nc3c(cc2c1)c(=O)n(C)c1c3c(=O)n(-c2ccccc2)c(=O)n1-c1ccccc1
> 50 µM (inactive)	COc1ccc(C2CC(c3ccc(C)cc3)N(C(=O)C3CC3)c3ncnn32)cc1 (stereo unspecified)
> 50 µM (inactive)	O=C(Nc1nnc2n1CCCS2)c1cc2ccccc2o1
42.1 µM	COc1ccc(CNC(=O)c2ccccc2N2C(=O)N3CCc4c([nH]c5ccccc45)[C@@]3(C)C2=O)cc1

The next lines start with the compound.

SMILES	IC50
COCCNC(=O)c1ccnn1-c1ccc2ccc(-c3cccnc3)cn12	> 50 µM (inactive)
O=c1[nH]c(-c2ccccn2)nc2c1CCN(Cc1cnn(-c3ccccc3)c1)C2	> 50 µM (inactive)
COc1ncccc1CN1CCn2c(Cn3cccn3)cnc2C1C (stereo unspecified)	> 50 µM (inactive)
Cc1ccc(NC(=O)/C=C/c2cccc(C(F)(F)F)c2)c(O)c1	30.5 µM
Cc1cc(NC(=O)COc2ccc3oc4ccccc4c3c2)no1	> 50 µM (inactive)
COc1ccc(C(C)NC(=O)c2cnc(-c3ccccc3)nc2-c2ccncc2)cc1 (stereo unspecified)	> 50 µM (inactive)
CCn1c(=N)n(CCOc2ccc(F)cc2)c2ccccc21	> 50 µM (inactive)
COc1cc(C2SCC(=O)Nc3c2c(-c2ccccc2)nn3-c2ccccc2)cc(OC)c1OC (stereo unspecified)	> 50 µM (inactive)
CC(=O)c1ccc(NC(=O)CC2C(=O)Nc3nc4ccccc4n32)cc1 (stereo unspecified)	37.2 µM
CCc1ccc(OCc2nnc(SCC(=O)Nc3ccccc3OC)n2Cc2ccccc2)cc1	> 50 µM (inactive)
O=C(CSc1ccc2nnc(-c3ccccc3)n2n1)N1CCCc2ccccc21	15 µM
O=C(Nc1ccc(F)cc1)Nc1ccccc1OCc1cc(=O)n2ccccc2n1	39.3 µM
COc1ccc2nc(SCC(=O)Nc3ccc(NC(C)=O)cc3)c(C)cc2c1	31.9 µM
O=C(COC(=O)c1cc(Cl)c2c(c1)OCO2)Nc1ccc2[nH]c(=O)[nH]c2c1	> 50 µM (inactive)
Cc1nn(C)c2c1[C@@H](c1ccc(F)c(Br)c1)[C@H](NC(=O)c1ccccc1)C(=O)N2	> 50 µM (inactive)
Cc1ccc(CNC(=O)Cn2c(=O)n(-c3ccccc3)c3ncccc32)cc1	> 50 µM (inactive)
CCn1cc(NC(=O)CN2CCC3(CC=CCOC3)CC2)c(C)n1	> 50 µM (inactive)
Cn1c(C(=O)NCc2ccccn2)cc2c(=O)[nH]c3ccccc3c21	> 50 µM (inactive)
Cc1cc(CSc2ncccc2C(=O)Nc2ccnn2Cc2cccnc2)no1	> 50 µM (inactive)
Cc1cc(O)c(Oc2cc(C)cc(O)c2O)c(O)c1	16.8 µM

SMILES	IC50
COc1ccccc1CNC(=O)CCCCn1c(=O)c2ccccc2n(Cc2ccccc2C#N)c1=O	16.9 µM
COc1cc2c(cc1NC(=O)c1ccc(-n3cnnn3)cc1)oc1ccccc12	> 50 µM (inactive)
COc1ccccc1S(=O)(=O)N1CC[C@@H]2CN(C)[C@@H]2C1	> 50 µM (inactive)
Cc1ccc(CN2CCCn3nc(C(=O)NCc4ccc(F)cc4)cc3C2=O)cc1	> 50 µM (inactive)
Cc1cc(=O)n2c3c(c4c(cc13)c(CO)cc(=O)n4C)OC2	> 50 µM (inactive)
O=C(CSc1ncnc2c1sc1cccc(F)c12)N1CCCCCC1	> 50 µM (inactive)
Cc1ccc2c(c1C)NC(=O)[C@]21[C@@H]2C(=O)N(c3cc(Cl)ccc3Cl)C(=O)[C@@H]2[C@@H]2CCCN21	> 50 µM (inactive)
c1ccc2c(Cc3nc(-c4ccncc4)no3)cccc2c1	> 50 µM (inactive)
O=C(Nc1oc2ccccc2c(=O)c1-c1ccc2c(c1)OCO2)C1CCCCC1	> 50 µM (inactive)
Cc1cc(O)c2c3c(c(O)cc2c1)C(=O)c1c(O)cccc1C3=O	4.84 µM
CSc1nc2ncn(CC(=O)Nc3cccc(Cl)c3)c(=O)c2s1	> 50 µM (inactive)
COc1ccc(NS(=O)(=O)c2cc(NC(=O)CCc3nc4ccccc4s3)ccc2C)cc1	31.7 µM
O=S(c1ccc2ccccc2c1)c1cnns1 (stereo unspecified)	> 50 µM (inactive)
COc1cccc(NC(=O)C2C3C=CC4(O3)C2C(=O)N(CCc2ccccc2Cl)C4C(=O)NC2CCCCC2)c1 (stereo unspecified)	29.7 µM
COc1ccccc1CNC(=O)c1c(O)c2cnn(-c3cccc(C)c3)c2[nH]c1=O	> 50 µM (inactive)
COc1ccc(NC(=O)c2cc(-c3cccnc3)n[nH]2)cc1Cl	17.8 µM
CC(C(=O)NCc1ccc2c(c1)OCO2)N1CCN(c2ccc(O)cc2)CC1 (stereo unspecified)	> 50 µM (inactive)
CCC1=C(c2ccc(C)cc2)S(=O)(=O)NC1=NCC(=O)NC(C)c1ccccc1 (stereo unspecified)	20.5 µM
CC(C)Cc1cc(-c2nnc3sc(-c4ccco4)nn23)n[nH]1	> 50 µM (inactive)
